Source: ChEMBL document CHEMBL4321854, “Discovery of a First-in-Class Mitogen-Activated Protein Kinase Kinase 1/2 Degrader” (J Med Chem, 2019)
Activity calls are given as the source filed them. No cut-off for these calls is given here.

Key:
[1] = molecular target: T1, von Hippel-Lindau disease tumor suppressor/Dual specificity mitogen-activated protein kinase kinase 1 (Homo sapiens) (UniProt Q02750+P40337); experiment: (§1) Protac activity against VHL/MEK1 in human HT-29 cells harboring BRAF V600E variant assessed as degradation of MEK1 after 24 hrs by Western blot analysis; type: cell-based
[2] = molecular target: T2, von Hippel-Lindau disease tumor suppressor/Dual specificity mitogen-activated protein kinase kinase 1 (Homo sapiens, UniProt Q02750+P40337, V600E); experiment: as §1; type: cell-based
[3] = molecular target: T3, von Hippel-Lindau disease tumor suppressor/Dual specificity mitogen-activated protein kinase kinase 2 (Homo sapiens) (UniProt P36507+P40337); experiment: (§2) Protac activity against VHL/MEK2 in human HT-29 cells harboring BRAF V600E variant assessed as degradation of MEK2 after 24 hrs by Western blot analysis; type: cell-based
[4] = molecular target: von Hippel-Lindau disease tumor suppressor/Dual specificity mitogen-activated protein kinase kinase 2 (Homo sapiens, UniProt P36507+P40337, V600E); experiment: as §2; type: cell-based
[5] = molecular target: T1, von Hippel-Lindau disease tumor suppressor/Dual specificity mitogen-activated protein kinase kinase 1 (Homo sapiens); experiment: (§3) Protac activity against VHL/MEK1 in human COLO205 cells harboring BRAF V600E variant assessed as degradation of MEK1 after 24 hrs by Western blot analysis; type: cell-based
[6] = molecular target: T2, von Hippel-Lindau disease tumor suppressor/Dual specificity mitogen-activated protein kinase kinase 1; experiment: as §3; type: cell-based
[7] = molecular target: T1, von Hippel-Lindau disease tumor suppressor/Dual specificity mitogen-activated protein kinase kinase 1 (Homo sapiens); experiment: (§4) Protac activity against VHL/MEK1 in human UACC257 cells harboring BRAF V600E variant assessed as degradation of MEK1 after 24 hrs by Western blot analysis; type: cell-based
[8] = molecular target: T2, von Hippel-Lindau disease tumor suppressor/Dual specificity mitogen-activated protein kinase kinase 1; experiment: as §4; type: cell-based
[9] = molecular target: T3, von Hippel-Lindau disease tumor suppressor/Dual specificity mitogen-activated protein kinase kinase 2 (Homo sapiens); experiment: Protac activity against VHL/MEK2 in human HT-29 cells harboring with BRAF V600E variant assessed as degradation of MEK2 at 3 to 5 uM after 24 hrs by Western blot analysis; type: cell-based
[10] = molecular target: T3, von Hippel-Lindau disease tumor suppressor/Dual specificity mitogen-activated protein kinase kinase 2 (Homo sapiens); experiment: Protac activity against VHL/MEK2 in human UACC257 cells harboring with BRAF V600E variant assessed as degradation of MEK2 at 3 to 5 uM after 24 hrs by Western blot analysis; type: cell-based
[11] = molecular target: T4, von Hippel-Lindau disease tumor suppressor/Dual specificity mitogen-activated protein kinase kinase 2/Dual specificity mitogen-activated protein kinase kinase 1 (Homo sapiens) (UniProt P36507+Q02750+P40337); experiment: Protac activity against VHL/MEK1/2 in human COLO205 cells harboring with BRAF V600E variant assessed as reduction in phosphorylation of MEK at S218/222 residues after 24 hrs by Western blot analysis; type: cell-based
[12] = tested on: SK-MEL-28; experiment: Effect on total ERK protein expression in human SK-MEL-28 cells at 0.001 to 5 uM after 24 hrs by Western blot analysis; type: functional, cell-based
[13] = molecular target: T1, von Hippel-Lindau disease tumor suppressor/Dual specificity mitogen-activated protein kinase kinase 1 (Homo sapiens); experiment: Protac activity against VHL/MEK1 in human HT-29 cells harboring with BRAF V600E variant assessed as degradation of MEK1 by measuring reduction in MEK1 protein level at 0.3 uM after 8 hrs by Western blot analysis relative to control; type: cell-based; design: scale not given: the % may be the effect or the level left
[14] = molecular target: T1, von Hippel-Lindau disease tumor suppressor/Dual specificity mitogen-activated protein kinase kinase 1 (Homo sapiens); experiment: Protac activity against VHL/MEK1 in human HT-29 cells harboring with BRAF V600E variant assessed as degradation of MEK1 at 0.1 to 0.3 uM after 4 hrs by Western blot analysis; type: cell-based
[15] = molecular target: T4, von Hippel-Lindau disease tumor suppressor/Dual specificity mitogen-activated protein kinase kinase 2/Dual specificity mitogen-activated protein kinase kinase 1 (Homo sapiens); experiment: Protac activity against VHL/MEK1/2 in human SK-MEL-28 cells harboring with BRAF V600E variant assessed as reduction in phosphorylation of ERK at T202/Y204 residues at 0.1 to 0.3 uM by Western blot analysis; type: cell-based; settings: TDE = time-dependent effect
[16] = molecular target: T1, von Hippel-Lindau disease tumor suppressor/Dual specificity mitogen-activated protein kinase kinase 1 (Homo sapiens); experiment: Protac activity against VHL/MEK1 in human HT-29 cells harboring with BRAF V600E variant assessed as degradation of MEK1 by measuring MEK1 protein level at 0.3 uM pretreated with VHL ligand, VH 032 for 2 hrs followed by incubation with compound for 10 hrs by Western blot analysis; type: cell-based
[17] = molecular target: T3, von Hippel-Lindau disease tumor suppressor/Dual specificity mitogen-activated protein kinase kinase 2 (Homo sapiens); experiment: Protac activity against VHL/MEK2 in human SK-MEL-28 cells harboring with BRAF V600E variant assessed as degradation of MEK2 by measuring MEK2 protein level at 0.3 uM pretreated with VHL ligand, VH 032 for 2 hrs followed by incubation with compound for 10 hrs by Western blot analysis; type: cell-based
[18] = molecular target: T1, von Hippel-Lindau disease tumor suppressor/Dual specificity mitogen-activated protein kinase kinase 1 (Homo sapiens); experiment: (§5) Protac activity against VHL/MEK1 in human HT-29 cells harboring with BRAF V600E variant assessed as degradation of MEK1 by measuring MEK1 protein level at 0.3 uM pretreated with proteasome inhibitor, MG-132 for 2 hrs followed by incubation with compound for 10 hrs by Western blot analysis; type: cell-based
[19] = molecular target: T1, von Hippel-Lindau disease tumor suppressor/Dual specificity mitogen-activated protein kinase kinase 1 (Homo sapiens); experiment: Protac activity against VHL/MEK1 in human SK-MEL-28 cells harboring with BRAF V600E variant assessed as degradation of MEK1 by measuring MEK1 protein level at 0.3 uM pretreated with proteasome inhibitor, MG-132 for 2 hrs followed by incubation with compound for 10 hrs by Western blot analysis; type: cell-based
[20] = molecular target: T4, von Hippel-Lindau disease tumor suppressor/Dual specificity mitogen-activated protein kinase kinase 2/Dual specificity mitogen-activated protein kinase kinase 1 (Homo sapiens); experiment: Protac activity against VHL/MEK1/2 in human HT-29 cells harboring with BRAF V600E variant assessed as phosphorylation of ERK at T202/Y204 residues at 0.3 uM pretreated with proteasome inhibitor, MG-132 for 2 hrs followed by incubation with compound for 10 hrs by Western blot analysis; type: cell-based
[21] = molecular target: T1, von Hippel-Lindau disease tumor suppressor/Dual specificity mitogen-activated protein kinase kinase 1 (Homo sapiens); experiment: as §5, with “NEDD8-activating enzyme” for “proteasome”, “MLN4924” for “MG-132”; type: cell-based
[22] = molecular target: T3, von Hippel-Lindau disease tumor suppressor/Dual specificity mitogen-activated protein kinase kinase 2 (Homo sapiens); experiment: as §5, with “VHL/MEK2” for “VHL/MEK1”, “MEK2” for “MEK1”, “NEDD8-activating enzyme” for “proteasome”, “MLN4924” for “MG-132”; type: cell-based
[23] = tested on: HT-29; experiment: Antiproliferative activity against human HT-29 cells assessed as reduction in cell growth after 3 days by MTT assay; type: functional
[24] = tested on: SK-MEL-28; experiment: Antiproliferative activity against human SK-MEL-28 cells assessed as reduction in cell growth after 3 days by MTT assay; type: functional
[25] = tested on: SK-MEL-28; experiment: Inhibition of colony formation in human SK-MEL-28 cells at 10 to 100 nM supplemented with fresh medium containing compound every 3 days for 14 days by crystal violet staining based assay; type: functional, cell-based
[26] = Ratio of Plasma concentration in Swiss albino mouse at 50 mg/kg, ip measured after 8 hrs to GI50 for antiproliferative activity against human SK-MEL-28 cells; type: organism-based; settings: in vivo
[27] = Toxicity in Swiss albino mouse assessed as effect on adverse events at 50 mg/kg, ip; type: organism-based; settings: in vivo
[28] = molecular target: T1, von Hippel-Lindau disease tumor suppressor/Dual specificity mitogen-activated protein kinase kinase 1 (Homo sapiens); experiment: Protac activity against VHL/MEK1 in human HT-29 cells harboring with BRAF V600E variant assessed as degradation of MEK1 at 0.1 to 0.3 uM by Western blot analysis; type: cell-based; settings: TDE = time-dependent effect
[29] = molecular target: T3, von Hippel-Lindau disease tumor suppressor/Dual specificity mitogen-activated protein kinase kinase 2 (Homo sapiens); experiment: Protac activity against VHL/MEK2 in human HT-29 cells harboring with BRAF V600E variant assessed as degradation of MEK2 at 0.1 to 0.3 uM by Western blot analysis; type: cell-based; settings: TDE = time-dependent effect
[30] = molecular target: T1, von Hippel-Lindau disease tumor suppressor/Dual specificity mitogen-activated protein kinase kinase 1 (Homo sapiens); experiment: Protac activity against VHL/MEK1 in human SK-MEL-28 cells harboring with BRAF V600E variant assessed as degradation of MEK1 at 0.1 to 0.3 uM by Western blot analysis; type: cell-based; settings: TDE = time-dependent effect
[31] = molecular target: T3, von Hippel-Lindau disease tumor suppressor/Dual specificity mitogen-activated protein kinase kinase 2 (Homo sapiens); experiment: Protac activity against VHL/MEK2 in human SK-MEL-28 cells harboring with BRAF V600E variant assessed as degradation of MEK2 at 0.1 to 0.3 uM by Western blot analysis; type: cell-based; settings: TDE = time-dependent effect

T3 sequence (P36507 whole entry, looked up): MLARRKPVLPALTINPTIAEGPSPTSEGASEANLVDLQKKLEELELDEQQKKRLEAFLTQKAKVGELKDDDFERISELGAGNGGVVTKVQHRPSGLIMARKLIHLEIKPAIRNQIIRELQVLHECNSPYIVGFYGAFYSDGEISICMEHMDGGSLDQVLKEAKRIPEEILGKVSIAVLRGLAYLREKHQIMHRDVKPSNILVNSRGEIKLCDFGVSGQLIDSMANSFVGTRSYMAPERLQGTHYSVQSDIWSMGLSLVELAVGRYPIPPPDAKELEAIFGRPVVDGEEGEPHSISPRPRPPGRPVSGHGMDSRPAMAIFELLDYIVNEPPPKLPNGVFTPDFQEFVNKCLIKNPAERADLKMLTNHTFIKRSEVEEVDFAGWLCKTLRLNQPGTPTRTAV
T3 sequence (P40337 whole entry, looked up): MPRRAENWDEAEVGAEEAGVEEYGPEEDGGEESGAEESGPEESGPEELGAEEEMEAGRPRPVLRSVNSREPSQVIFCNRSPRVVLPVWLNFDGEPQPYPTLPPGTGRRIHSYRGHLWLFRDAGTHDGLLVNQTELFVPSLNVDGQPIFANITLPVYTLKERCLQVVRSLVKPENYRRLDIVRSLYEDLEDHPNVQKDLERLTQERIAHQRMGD
T4 sequence (P36507 whole entry, looked up): as the sequence (P36507 whole entry, looked up) above
T4 sequence (P40337 whole entry, looked up): as the sequence (P40337 whole entry, looked up) above
T4 sequence (Q02750 whole entry, looked up): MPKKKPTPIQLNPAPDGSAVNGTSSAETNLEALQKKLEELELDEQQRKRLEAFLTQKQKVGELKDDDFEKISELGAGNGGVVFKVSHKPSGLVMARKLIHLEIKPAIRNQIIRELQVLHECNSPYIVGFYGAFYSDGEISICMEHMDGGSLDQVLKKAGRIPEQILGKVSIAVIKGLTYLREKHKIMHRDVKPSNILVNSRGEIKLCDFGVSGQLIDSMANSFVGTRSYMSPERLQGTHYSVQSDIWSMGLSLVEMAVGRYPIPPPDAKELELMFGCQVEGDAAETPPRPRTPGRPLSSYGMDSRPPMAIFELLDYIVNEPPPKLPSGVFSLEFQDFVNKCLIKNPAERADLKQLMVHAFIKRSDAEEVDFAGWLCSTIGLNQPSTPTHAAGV
T2 sequence (P40337 whole entry, looked up, stated change not applied): as the sequence (P40337 whole entry, looked up) above
T2 sequence (Q02750 whole entry, looked up, stated change not applied): as the sequence (Q02750 whole entry, looked up) above
T1 sequence (P40337 whole entry, looked up): as the sequence (P40337 whole entry, looked up) above
T1 sequence (Q02750 whole entry, looked up): as the sequence (Q02750 whole entry, looked up) above
von Hippel-Lindau disease tumor suppressor/Dual specificity mitogen-activated protein kinase kinase 2, sequence (P36507 whole entry, looked up, stated change not applied): as the sequence (P36507 whole entry, looked up) above
von Hippel-Lindau disease tumor suppressor/Dual specificity mitogen-activated protein kinase kinase 2, sequence (P40337 whole entry, looked up, stated change not applied): as the sequence (P40337 whole entry, looked up) above

Cc1ncsc1-c1ccc([C@H](C)NC(=O)[C@@H]2C[C@@H](O)CN2C(=O)[C@@H](NC(=O)CCCCCCCCCCNCCCONC(=O)c2ccc(F)c(F)c2Nc2ccc(I)cc2F)C(C)(C)C)cc1
Activity [1]: Dose-dependent effect | DC50 [2]: 31 nM | Activity [3]: Dose-dependent effect | DC50 [4]: 17 nM | Activity [5]: Dose-dependent effect | DC50 [6]: 18 nM | Activity [7]: Dose-dependent effect | DC50 [8]: 56 nM | Activity [9]: Active | Activity [10]: Active | Activity [11]: Dose-dependent effect | Activity [12]: inactive | Activity [13]: > 80% | Activity [14]: Active | Activity [15]: Tde | Activity [16]: inactive | Activity [17]: inactive | Activity [18]: inactive | Activity [19]: inactive | Activity [20]: inactive | Activity [21]: inactive | Activity [22]: inactive | growth inhibition (GI) [23]: Dose-dependent effect | GI50 ([23]; HT-29, 72 h): 130 nM | growth inhibition (GI) [24]: Dose-dependent effect | GI50 ([24]; SK-MEL-28, 72 h): 83 nM | inhibition [25]: Active | Ratio [26]: 3 to 20 | Activity [27]: Non-Toxic | Activity [28]: Tde | Activity [29]: Tde | Activity [30]: Tde | Activity [31]: Tde
